Experimental data: ChEMBL document CHEMBL1148026, “Oxadiazole mannich bases: synthesis and antimycobacterial activity” (Bioorg Med Chem Lett, 2007)
Converted amounts (≈) assume the structure as drawn.

test system: Mycobacterium tuberculosis; test: Antimycobacterial activity against isoniazid-resistant Mycobacterium tuberculosis by agar dilution method using double dilution technique; assay type: functional

Row | SMILES | MIC
1 | O=S(=O)(c1ccc(NC(c2ccccc2)n2nc(COc3ccc4ccccc4c3)oc2=S)cc1)c1ccc(NC(c2ccccc2)n2nc(COc3ccc4ccccc4c3)oc2=S)cc1 (stereo not given) | 2.42 µM (≈ 2.28 µg/mL)
2 | NNC(=O)c1ccncc1 [ISONIAZID] | 11.4 µM (≈ 1.56 µg/mL)
3 | O=S(=O)(c1ccc(NC(Cc2ccco2)n2nc(-c3ccccc3)oc2=S)cc1)c1ccc(NC(Cc2ccco2)n2nc(-c3ccccc3)oc2=S)cc1 (stereo not given) | 2.24 µM (≈ 1.77 µg/mL)
4 | O=S(=O)(c1ccc(NC(Cc2ccco2)n2nc(COc3ccccc3)oc2=S)cc1)c1ccc(NC(Cc2ccco2)n2nc(COc3ccccc3)oc2=S)cc1 (stereo not given) | 1.14 µM (≈ 0.968 µg/mL)
5 | O=S(=O)(c1ccc(NC(c2ccccc2)n2nc(COc3ccccc3)oc2=S)cc1)c1ccc(NC(c2ccccc2)n2nc(COc3ccccc3)oc2=S)cc1 (stereo not given) | 4.98 µM (≈ 4.19 µg/mL)
6 | O=S(=O)(c1ccc(NC(Cc2ccco2)n2nc(Cc3ccccc3)oc2=S)cc1)c1ccc(NC(Cc2ccco2)n2nc(Cc3ccccc3)oc2=S)cc1 (stereo not given) | 3.24 µM (≈ 2.65 µg/mL)
7 | O=[N+]([O-])c1ccc(-c2nn(C(Nc3ccc(S(=O)(=O)c4ccc(NC(c5ccccc5)n5nc(-c6ccc([N+](=O)[O-])cc6)oc5=S)cc4)cc3)c3ccccc3)c(=S)o2)cc1 (stereo not given) | 3.94 µM (≈ 3.43 µg/mL)
8 | O=S(=O)(c1ccc(NC(Cc2ccco2)n2nc(-c3ccc(Nc4ccccc4)cc3)oc2=S)cc1)c1ccc(NC(Cc2ccco2)n2nc(-c3ccc(Nc4ccccc4)cc3)oc2=S)cc1 (stereo not given) | 1.86 µM (≈ 1.81 µg/mL)
9 | O=S(=O)(c1ccc(NC(c2ccccc2)n2nc(COc3cccc4ccccc34)oc2=S)cc1)c1ccc(NC(c2ccccc2)n2nc(COc3cccc4ccccc34)oc2=S)cc1 (stereo not given) | 5.96 µM (≈ 5.61 µg/mL)
10 | O=S(=O)(c1ccc(NC(c2ccccc2)n2nc(-c3ccccc3)oc2=S)cc1)c1ccc(NC(c2ccccc2)n2nc(-c3ccccc3)oc2=S)cc1 (stereo not given) | 5.42 µM (≈ 4.23 µg/mL)
11 | O=S(=O)(c1ccc(NC(Cc2ccco2)n2nc(COc3ccc4ccccc4c3)oc2=S)cc1)c1ccc(NC(Cc2ccco2)n2nc(COc3ccc4ccccc4c3)oc2=S)cc1 (stereo not given) | 1.1 µM (≈ 1.04 µg/mL)
12 | O=S(=O)(c1ccc(NC(c2ccccc2)n2nc(-c3ccc(Nc4ccccc4)cc3)oc2=S)cc1)c1ccc(NC(c2ccccc2)n2nc(-c3ccc(Nc4ccccc4)cc3)oc2=S)cc1 (stereo not given) | 4.65 µM (≈ 4.48 µg/mL)
13 | O=S(=O)(c1ccc(NC(Cc2ccco2)n2nc(COc3cccc4ccccc34)oc2=S)cc1)c1ccc(NC(Cc2ccco2)n2nc(COc3cccc4ccccc34)oc2=S)cc1 (stereo not given) | 2.12 µM (≈ 2.01 µg/mL)
14 | O=S(=O)(c1ccc(NC(c2ccccc2)n2nc(Cc3ccccc3)oc2=S)cc1)c1ccc(NC(c2ccccc2)n2nc(Cc3ccccc3)oc2=S)cc1 (stereo not given) | 5.98 µM (≈ 4.84 µg/mL)
15 | O=[N+]([O-])c1ccc(-c2nn(C(Cc3ccco3)Nc3ccc(S(=O)(=O)c4ccc(NC(Cc5ccco5)n5nc(-c6ccc([N+](=O)[O-])cc6)oc5=S)cc4)cc3)c(=S)o2)cc1 (stereo not given) | 1.74 µM (≈ 1.53 µg/mL)
